# Values quoted from earlier work in patent US20010044101A1, “IN VITRO METHOD FOR PREDICTING THE EV[…] OF A PROTEIN TO A DRUG TARGETED THEREAGAINST” (priority 1994, published 2001).
# Read-outs that look alike come from different tables or passages of the source.
# System: HIV-1
substance,measurement,setting,value
(-)-2′-deoxy-5-fluoro-3′-thiacytidine [FTC],IC50,"fourth passage of the wild-type HIV-1 progeny, MT-4 cells, increasing FTC concentration, read-out: IC50 (50% inhibitory concentration)",> 50 µM
same,IC50,"passage 6 virus, tested at higher compound concentrations, read-out: IC50",> 250 µM
same,IC50,"second passage of the AZT-resistant HIV-1 progeny, MT-4 cells, increasing FTC concentration, read-out: IC50 (50% inhibitory concentration)",> 50 µM
